Consider five compounds from patent US11401255B2, “Small molecule activators of Parkin enzyme function” (Mayo Foundation for Medical Education and Research, priority 2016, dated 2022).

Structures are written as SMILES.

For one data set, the system named is HepG2 cells. In words: Cytotoxicity assay (resazurin), HepG2 cell proliferation inhibition. It is filed as cell-based. As to conditions: Homo sapiens, 24 hours. Here is the method: Compounds 1-4 and 31 were tested in a cytotoxicity assay. The assay was based on the conversion of the non-fluorescent dye resazurin to the fluorescent compound rezorufin in the reducing environment of living cell cytoplasm. The more living cells in a sample result in higher fluorescence, while less living cells result in lower fluorescence.
HepG2 cells were cultivated in a humidified atmosphere at 37° C. and 5% CO2 in 75 cm^2 flasks to 80-90% of confluence and split twice per week with a subcultivation ratio of 1:4. The cell layer was rinsed with PBS to remove all traces of serum. Then 3.0 mL of solution containing 0.25% (w/v) trypsin and 0.53 mM EDTA was added to the flask and incubated about 10 minutes. The HepG2 cells were detached using a scraper and re-suspended in DMEM containing 10% FBS and 2 mM glutamine. The cell suspension with a final concentration of 5×10^5 cells/mL was dispensed into sterile 96-well black wall clear flat bottom plates as previously described (McMillian et al. (2002) Cell Biol. Toxicol. 18(3):157-173; Mulvihill et al. (2009) Future Med. Chem. 1(6):1153-1171) and the test compounds were added.
The compound DMSO stock solutions were diluted with PBS to achieve an intermediate concentration of 1 mM. The cell proliferation assessment was performed at different concentrations of compounds ranging from 0.1 μM to 100 μM. Doxorubicin at a final concentration of 20 μM was used as a positive control. After compound addition, cells were incubated for 24 hours in a humidified atmosphere at 37° C. and 5% CO2.
Resazurin was added to the final concentration (50 μM) and incubated for 4 hours under the same conditions. Presence of rezorufin (cell viability) was quantified by measuring fluorescence (Ex—490 nm, Em—540 nm; see Vega-Avila and Pugsley (2011) Proc. West Pharmacol. Soc. 54:10-14).
The percent of cell proliferation inhibition was calculated by applying the following formula: […]
A general note: Alamar Blue is a resazurin reagent that responds to reducing activity.

The test system of data set [1] is Salmonella typhimurium and Escherichia coli tester strains. In words: Bacterial reverse mutation assay (Ames Test), all tester strains. The note with it: for mutagenic potential for the tester strains: 50, 100 and 200 μM; for precipitate in strain-compound-GM medium mixture: final concentration 200 μM. The source says:
The test used amino acid-dependent strains of Salmonella typhimurium and Escherichia coli to detect point mutations which involved substitution, addition or deletion of one or a few DNA base pairs. Point mutations were introduced in the histidine (Salmonella typhimurium) or the tryptophan (Escherichia coli) operon, making the tester strains incapable of producing these amino acids. The test detected mutations that revert the mutations present in the bacteria, restoring the functional capability to synthesize histidine or tryptophan. The revertant bacteria were detected by the ability to grow in the absence of the amino acid required by the parent test strain. A mutagenic potential of a tested compound was assessed by exposing these bacterial strains to different concentrations of the compounds and estimating number of revertant colonies grown in the absence (trace quantities) of the amino acid.
DMSO was used as the negative control.
For each experiment, tester strain cultures were grown overnight in Oxoid nutrient broth #2 at 37° C. with shaking at 235 rpm to a density of 1-2×10^9 colony forming units/mL (OD540˜2).
The tester strain (10 μL of night culture) was mixed with the test agent (10 µL of the DMSO stock) and GM liquid medium (30 μL). The obtained mixture was incubated at room temperature for 5 min in a sterile 1.5 mL tube. Then, to the tube was added 200 μL of molten top agar stored at 44° C. to prevent solidifying. After mixing with a pipette, the mixture was poured onto the surface of a GM agar plate (2.0 mL of GM agar per plate). After solidifying the top agar, the plate was inverted and incubated at 37° C. for 48 hours. Then, results were expressed as number of revertant colonies per plate.

In general, inhibition refers to the drop in the measured response relative to a control, in per cent. With `O=C(Cn1cnc2c1CCCC2)Nc1ccc(-c2ccccc2)cc1` [Compound 1], in the data set on HepG2 cells, the inhibition at 0.1 µM was -0.1%, the inhibition at 0.3 µM is -2%, the inhibition at 1 µM is -0.6% and the inhibition at 3 µM is -1.8%. In addition, in the data set on HepG2 cells, the inhibition at 10 µM was -3.9%, the inhibition at 30 µM is -2.5% and the inhibition at 100 µM turned out to be 0.1%. Moreover, in data set [1], the “mutagenic potential for the tester strains” value (from here on “mutagenic potential”) is recorded as “no mutagenic potential” and the “precipitate in strain-compound-GM medium mixture” value is on record as “Precipitate was observed”.
Consider `CC(C)c1nccn1CC(=O)Nc1ccc(-c2ccccc2)cc1` [Compound 2], for which, in the data set on HepG2 cells, the inhibition at 0.1 µM was -1.8%, the inhibition at 0.3 µM is 2.8%, the inhibition at 1 µM is 1.2% and the inhibition at 3 µM was 5.6%. Also, in the data set with HepG2 cells, the inhibition at 10 µM came to 2.6%, the inhibition at 30 µM came out at 2.4% and the inhibition at 100 µM stood at 14.7%. The “mutagenic potential” value in data set [1] is given as “no mutagenic potential”.
Turning to `CC(C)(C)Sc1ccc(NC(=O)Cn2ccnc2)cc1` [Compound 3], in the data set with HepG2 cells, the inhibition at 0.1 µM is -2.1%, the inhibition at 0.3 µM stood at 0.2%, the inhibition at 1 µM worked out at 2.4% and the inhibition at 3 µM was found to be 3.9%. Moreover, in the data set with HepG2 cells, the inhibition at 10 µM is 2.6%, the inhibition at 30 µM was -0.1% and the inhibition at 100 µM amounted to 0.5%.
Regarding `O=C(Cn1ccnc1-c1ccccn1)Nc1ccc(-c2ccccc2)cc1` [Compound 4], in the data set with HepG2 cells, the inhibition at 0.1 µM is -1.8%, the inhibition at 0.3 µM was found to be 0.1%, the inhibition at 1 µM worked out at 0.8% and the inhibition at 3 µM came out at 5.4%. Besides, in the data set on HepG2 cells, the inhibition at 10 µM was -1.4%, the inhibition at 30 µM is -3.8% and the inhibition at 100 µM is -5.5%. Further, in data set [1], the “mutagenic potential” value is “no mutagenic potential” and the “precipitate in strain-compound-GM medium mixture” value is on record as “Precipitate was observed”.
In the case of `Cc1nc2c(c(N3CCCN(Cc4ccccc4)CC3)n1)CCCC2` [Compound 31], in the data set with HepG2 cells, the inhibition at 0.1 µM worked out at 2%, the inhibition at 0.3 µM was -0.8%, the inhibition at 1 µM is -1.5% and the inhibition at 3 µM is -0.9%. For the same compound, in the data set on HepG2 cells, the inhibition at 10 µM is -2.2%, the inhibition at 30 µM was -5.4% and the inhibition at 100 µM is -17.7%. For the same compound, the “mutagenic potential” value in data set [1] was “no mutagenic potential”.
